Data from the CheMixHub drug solubility set.

Assay: xn = mol fraction of the nth substance listed, in the solute-free solvent

Cc1ccc(-c2cc(C(F)(F)F)nn2-c2ccc(S(N)(=O)=O)cc2)cc1 + CN1CCCC1=O + CCO
solubility (g/100 g solution)
Details	x2 = 0.0491	x2 = 0.1041	x2 = 0.1661	x2 = 0.2365	x2 = 0.3173	x2 = 0.4108	x2 = 0.5202	x2 = 0.6502	x2 = 0.8071
293.15 K	8.15	8.62	9.04	9.29	9.69	10.4	12.6	14.8	17.6
298.15 K	8.96	9.87	10.4	10.9	11.4	12.6	14.7	16.8	19.6
303.15 K	10.2	10.9	11.3	12.3	12.9	14.4	16.7	18.8	22
308.15 K	11.1	11.8	12.6	13.8	14.3	16.4	18.8	20.9	23.9
313.15 K	12.1	12.7	13.9	15.2	15.9	19	21.3	23.5	25.9

Nc1ncc(Br)nc1Br + CCO + O
solubility (g/100 g solution)
Details	278.15 K	283.15 K	288.15 K	293.15 K	298.15 K	303.15 K	308.15 K	313.15 K	318.15 K	323.15 K
x2 = 0.04165	0.0211	0.0254	0.0296	0.0345	0.0394	0.044	0.0494	0.0552	0.0608	0.0668
x2 = 0.08908	0.0644	0.0768	0.0889	0.102	0.116	0.128	0.142	0.158	0.172	0.188
x2 = 0.1436	0.124	0.148	0.171	0.197	0.222	0.245	0.271	0.299	0.326	0.354
x2 = 0.2068	0.179	0.214	0.249	0.286	0.324	0.358	0.395	0.438	0.479	0.521
x2 = 0.2812	0.211	0.256	0.304	0.349	0.397	0.444	0.493	0.546	0.604	0.661
x2 = 0.3698	0.245	0.296	0.35	0.412	0.474	0.527	0.589	0.656	0.726	0.798
x2 = 0.4772	0.274	0.338	0.41	0.481	0.546	0.618	0.693	0.776	0.863	0.957
x2 = 0.6101	0.321	0.396	0.476	0.557	0.644	0.729	0.82	0.919	1.03	1.15
x2 = 0.7788	0.4	0.489	0.59	0.683	0.792	0.891	1	1.13	1.26	1.4

Nc1ncc(Br)nc1Br + CC(C)O + O
solubility (g/100 g solution)
Details	278.15 K	283.15 K	288.15 K	293.15 K	298.15 K	303.15 K	308.15 K	313.15 K	318.15 K	323.15 K
x2 = 0.03225	0.0151	0.0182	0.0212	0.0248	0.0285	0.032	0.0361	0.0405	0.0448	0.0495
x2 = 0.06974	0.0399	0.0475	0.0548	0.0636	0.0724	0.0809	0.0905	0.101	0.111	0.122
x2 = 0.1139	0.0745	0.0882	0.101	0.117	0.133	0.148	0.165	0.183	0.202	0.221
x2 = 0.1666	0.109	0.129	0.148	0.171	0.194	0.218	0.242	0.269	0.297	0.327
x2 = 0.2307	0.133	0.157	0.181	0.21	0.24	0.273	0.304	0.34	0.377	0.42
x2 = 0.3103	0.153	0.178	0.21	0.244	0.281	0.318	0.358	0.403	0.449	0.5
x2 = 0.4117	0.166	0.198	0.233	0.273	0.312	0.358	0.403	0.453	0.505	0.567
x2 = 0.5454	0.181	0.216	0.255	0.298	0.344	0.398	0.449	0.51	0.573	0.64
x2 = 0.7297	0.197	0.236	0.277	0.324	0.376	0.432	0.496	0.562	0.634	0.721

CC(C)C(=O)Nc1ccc([N+](=O)[O-])c(C(F)(F)F)c1 + CC#N + O
solubility (g/100 g solution)
Details	278.15 K	283.15 K	288.15 K	293.15 K	298.15 K	303.15 K	308.15 K	313.15 K	318.15 K	323.15 K
x2 = 0.04651	0.0051	0.007	0.00931	0.0126	0.0169	0.0223	0.0298	0.0389	0.0503	0.0645
x2 = 0.0989	0.0498	0.0667	0.0861	0.112	0.148	0.193	0.248	0.313	0.402	0.508
x2 = 0.1583	0.303	0.387	0.487	0.609	0.767	0.951	1.17	1.44	1.74	2.11
x2 = 0.2264	1.08	1.36	1.68	2.08	2.57	3.16	3.86	4.68	5.62	6.78
x2 = 0.3051	3.19	3.94	4.76	5.74	6.94	8.26	9.78	11.5	13.6	15.8
x2 = 0.397	6.71	8.14	9.68	11.6	13.8	16.2	19.1	22.2	25.3	28.7
x2 = 0.506	12.4	14.9	17.7	20.4	23.6	27.3	31.1	35.1	39.3	43.6
x2 = 0.6372	18.2	21.8	25.4	29.4	33.6	38	42.9	47.8	52.8	57.8
x2 = 0.798	24.1	28.7	33.3	38	43.2	48.7	54	59.6	64.5	69.8

Nc1cc(-c2ccncc2)c[nH]c1=O + CCO + O
solubility (g/100 g solution)
Details	278.15 K	283.15 K	288.15 K	293.15 K	298.15 K	303.15 K	308.15 K	313.15 K	318.15 K	323.15 K
x2 = 0.04165	0.00114	0.00134	0.00159	0.00187	0.00218	0.00251	0.00288	0.00327	0.00372	0.00424
x2 = 0.08908	0.00176	0.00207	0.00246	0.00288	0.00334	0.00384	0.0044	0.00498	0.00565	0.00642
x2 = 0.1436	0.00254	0.00304	0.00354	0.00413	0.00483	0.00549	0.00631	0.00722	0.00814	0.00941
x2 = 0.2068	0.00365	0.00427	0.00505	0.00593	0.00696	0.00785	0.009	0.0101	0.0116	0.0132
x2 = 0.2812	0.00514	0.00605	0.00709	0.0083	0.00956	0.0109	0.0125	0.014	0.0158	0.0179
x2 = 0.3698	0.0062	0.00747	0.00879	0.0103	0.0119	0.0137	0.0156	0.0178	0.0203	0.023
x2 = 0.4772	0.00811	0.00922	0.0108	0.0129	0.0146	0.0167	0.0193	0.0219	0.0247	0.0282
x2 = 0.6101	0.00938	0.0112	0.013	0.0153	0.0176	0.0202	0.0231	0.0259	0.029	0.033
x2 = 0.7788	0.0106	0.0125	0.0148	0.0174	0.0202	0.0229	0.026	0.0294	0.0329	0.0368

O=C1C=CC(=O)N1c1ccccc1Br + CC(C)O + O
solubility (g/100 g solution)
Details	278.15 K	283.15 K	288.15 K	293.15 K	298.15 K	303.15 K	308.15 K	313.15 K	318.15 K	323.15 K
x2 = 0.03225	0.488	0.623	0.779	0.978	1.23	1.51	1.84	2.23	2.7	3.25
x2 = 0.06974	0.861	1.08	1.35	1.69	2.09	2.55	3.1	3.77	4.48	5.34
x2 = 0.1139	1.4	1.76	2.18	2.7	3.31	3.97	4.86	5.84	6.97	8.22
x2 = 0.1666	2.08	2.57	3.18	3.87	4.71	5.69	6.76	8.01	9.42	11
x2 = 0.2307	2.9	3.57	4.27	5.21	6.18	7.35	8.51	10.1	11.6	13.5
x2 = 0.3103	3.46	4.18	5.06	6.06	7.2	8.48	9.92	11.5	13.2	15.1
x2 = 0.4117	3.79	4.6	5.54	6.58	7.75	9.12	10.5	12.3	14.1	16.1
x2 = 0.5454	3.85	4.69	5.65	6.75	7.99	9.39	10.8	12.7	14.6	16.7
x2 = 0.7297	3.73	4.58	5.43	6.58	7.83	9.28	10.8	12.5	14.4	16.6
